Molecules are shown by their SMILES. Values joined by “and” are separate entries in the source; they are usually repeats but may differ in a detail not shown here. Equal values may be shown once.

Holding throughout (assay type): cell-based, mixed culture of oil field bacteria
Test [1] has as its system Sulphate Reducing Bacteria (SRB). As to the kind of experiment: Bacterial growth control test, planktonic bacterial counts, SRB. Conditions: 75 ppm AMA-324 (active ingredient), sampled day 6; 3.5% nutrient brine with dodecane, 32° C., 75 rpm. As for the experimental part:
(§1) A mixed culture of oil field bacteria with Sulphate Reducing Bacteria (SRB), Acid Producing Bacteria (APB), and General Heterotrophic Bacteria (GHB) that came from an oil field system and had been frozen in glycerol maintained at −80° C. was used to study the effect of the test chemical compounds on biofilm formation and control thereof.
(§2) Biofilm tests were performed in 3.5 weight-% nutrient brine (NB) solution with minimal nutrients and a mixture of dodecane isomers, which are customary in oil field production waters and storage tanks.
(§3) The oilfield bacteria consortia was inoculated into the 3.5 weight-% nutrient brine solution and allowed to acclimate overnight at 32° C. in bulk. After acclimation, the solution was divided into 250 mL Pyrex bottles to contain 200 mL of the inoculated 3.5 weight-% nutrient brine and 25 mL of dodecane. Biofilms were grown on glass slides as removable attachment surfaces. Bottles were incubated at 32° C. with a rotary shaking (75 rpm) providing medium flow in each container.
(§4) Reactors each containing 200 mL of 3.5% nutrient brine were inoculated with the oilfield bacterial consortia and 25 mL of dodecane was treated with different amounts of the chemical compounds to be tested. A nitrogen blanket was added to the top of each reactor to minimize the oxygen content and allow a beneficial environment for anaerobic bacterial growth. […]

In test [2] the test system is Acid Producing Bacteria (APB). Briefly: Bacterial growth control test, planktonic bacterial counts, APB. The settings on record: 75 ppm AMA-324 (active ingredient), sampled day 6; 3.5% nutrient brine with dodecane, 32° C., 75 rpm. On the procedure:
as §1, §2, §3, §4

Test [3] relates to General Heterotrophic Bacteria (GHB). Briefly: Bacterial growth control test, planktonic bacterial counts, GHB. Conditions: 75 ppm AMA-324 (active ingredient), sampled day 6; 3.5% nutrient brine with dodecane, 32° C., 75 rpm. As for the experimental part:
as §1, §2, §3, §4

Test [4] deals with Sulphate Reducing Bacteria (SRB). Briefly: Sessile bacterial counts from biofilm scraped off glass slides, SRB. The settings on record: slide scraped day 6, 3.5% nutrient brine with dodecane, 32° C., 75 rpm. As for the experimental part: as §1, §2, §3, §4
Test [5] deals with biofilm of mixed oilfield consortia. Briefly: Quantification of formed biofilm, weight gain of glass slides. Further details: average weight gain of Slides A and B: unit: mg. Conditions: for average weight gain of Slides A and B: day 6; for Slide A weight gain: slide removed day 6, dried and weighed without further manipulation; for Slide B weight gain: slide removed day 6, scraped at 1 cm^2, then dried and weighed. As for the experimental part:
as §1, §2, §3
Two glass slides were added to each reactor bottle as described above and below and were removed at the end of the 6-day test for observation of biofilm accumulation, with the following considerations. For biofilm control experiments comprising biofilm removal from glass slides in 3.5% nutrient brine media inoculated with the mixed oilfield bacterial cultures and dodecane, biofilm was grown without addition of any test chemical compound to be tested in the control. In the reactors containing the test chemical compound, they were re-dosed daily for 5 days. A nitrogen blanket was added to each reactor after each dosing.
As described above, two glass slides were added to each reactor bottle. One was used for bacterial counts and the second was used to observe for biofilm accumulation. The second glass slide used to observe for growth was rinsed with deionized water, dried for 20 hours at 70° C., weighed and photographed. The weight values shown in the following tables are weights from 3 replicate reactor bottles. All weight values are given as actual measured values of the glass slides.
Table 3 presents results related to the effect on biofilm biomass of Compound A and AMA-324 dosing on the mixed oilfield consortia in 3.5 weight-% nutrient brine with dodecane at 32° C. and 75 rpm. Compound A was dosed daily for 5 days. AMA-324 was dosed at initial set-up only. Two glass slides were each weighed and added to each test container at set-up. After dosing for 5 days, at day 6, the slides were removed for analysis. Slide A was dried and weighed without further manipulation. Slide B was scrapped at 1 cm^2 with a sterile wooden stick into sterile phosphate buffer solution for bacterial counts. The scraped glass slide was then dried and weighed.

Test [6] has as its system mixed oilfield bacterial consortia. Briefly: Biocidal activity on mixed oilfield bacterial consortia (bacterial counts). On the procedure:
as §1, §2, §3, §4

A further test deals with biofilm biomass. Briefly: Optical density measurements of biofilm biomass. The settings on record: data not shown.
Setting [7] is: 75 ppm AMA-324 dosed at initial set-up only.
Where [8] appears, read: 2 ppm Compound A dosed daily for 5 days.
Where [9] appears, read: 5 ppm Compound A dosed daily for 5 days.

On to `CN1CSC(=S)N(C)C1` [AMA-324, Tetrahydro-3,5-dimethyl-2H-1,3,5-thiadiazine-2-thione, reference compound], for which, in test [1], the “Planktonic Bacterial Counts/mL SRB bacteria” value was below 0.3 Counts/mL. Moreover, the “Planktonic Bacterial Counts/mL APB bacteria” value in test [2] is listed as below 0.3 Counts/mL. Besides, the “Planktonic Bacterial Counts/mL GHB bacteria” value in test [3] is below 0.3 Counts/mL. Besides, the “Sessile Bacterial Counts/mL SRB bacterial” value in test [4] (75 ppm AMA-324 (active ingredient)) was below 0.6 Counts/mL. In test [5] (setting [7]), the “average weight gain of Slides A and B” value is 1.60 and 2.05 and 1.85; the “Slide A weight gain” value is 1.35 mg and 1.95 mg and 1.6 mg; the “Slide B weight gain” value was 1.85 mg and 2.15 mg and 2.1 mg. In addition, the “biocidal activity (bacterial counts as compared to the control)” value in test [6] (dosage of 75 ppm active ingredient alone) was “acted as a biocide”.
Turning to `Cc1ccc(S(=O)(=O)C=CC#N)cc1` [Compound A, 3-[(4-methylphenyl)sulfonyl]-2-propenenitrile], the “Sessile Bacterial Counts/mL SRB bacterial” value in test [4] (5.0 ppm Compound A dosed daily for 5 days) is on record as 1.90E+07 Counts/mL. Also, in test [5] (setting [8]), the “average weight gain of Slides A and B” value was 0.22 and 0.40 and 0.20; the “Slide B weight gain” value was 0.15 mg and 0.2 mg and 0.3 mg. For the same molecule, in test [5] (setting [9]), the “average weight gain of Slides A and B” value is 0.65 and 0.50 and 0.88; the “Slide A weight gain” value was 0.7 mg and 0.75 mg and 0.85 mg. Further, the “biofilm formation (weight of slides versus control or AMA-324)” value in test [5] (Table 3 results, 1 to 5 ppm dosed daily for 5 days) is “very effectively reduced biofilm formation”. The “biocidal activity (bacterial counts as compared to the control)” value in test [6] (dosage range of 1 ppm to 5 ppm, mixed oilfield bacterial consortia, anaerobic environment) is “did not act as a biocidal agent”. Moreover, the “amount of biofilm biomass by optical density measurements” value in the test on biofilm biomass was “decreased the amount of biofilm biomass”.

The values above are taken from US20220142160A1, “METHOD OF INHIBITING OR REDUCING BIOFILM IN A PETROLEUM PRODUCTION PROCESS” (KEMIRA OYJ, priority 2019, published 2022).
